Test results: the NIST ThermoML archive (doi:10.1016/j.jct.2011.01.016)

Columns and labels:
[1] = xn = mol fraction of the nth substance listed; details: 100 kPa, Liquid; for viscosity: Concentric cylinders viscometry; for mass density: Vibrating tube method
[2] = 101.33 kPa, Liquid; for viscosity: Concentric cylinders viscometry; for mass density: Vibrating tube method

CC(CC(C)(C)C)CP(=O)([O-])CC(C)CC(C)(C)C.CCCCCCCCCCCCCC[P+](CCCCCC)(CCCCCC)CCCCCC + O
[1], x2 = 0.876
Details | mass density [kg/m3] | viscosity [mPa·s]
298.15 K | 907.3 | 173.82
303.15 K | 903.9 | 128.58
308.15 K | 900.5 | 97.03
313.15 K | 897.2 | 74.52
318.15 K | 893.8 | 58.16
323.15 K | 890.4 | 46.06
328.15 K | 887.1 | 37
333.15 K | 883.6 | 30.09
338.15 K | 880.2 | 24.76
343.15 K | 876.8 | 20.59
348.15 K | 873.4 | 17.3
353.15 K | 869.9 | 14.66
358.15 K | 866.5 | 12.53
363.15 K | 863.1 | 10.78

CCCCCCCCCCCCCC[P+](CCCCCC)(CCCCCC)CCCCCC.CS(=O)(=O)[O-] [trihexyltetradecylphosphonium methanesulfonate] + O
[1], x2 = 0.825
Details | mass density [kg/m3] | viscosity [mPa·s]
298.15 K | 935.1 | 126.55
303.15 K | 931.8 | 97.43
308.15 K | 928.4 | 76.18
313.15 K | 925.1 | 60.41
318.15 K | 921.7 | 48.54
323.15 K | 918.4 | 39.48
328.15 K | 915 | 32.49
333.15 K | 911.6 | 27.02
338.15 K | 908.2 | 22.69
343.15 K | 904.8 | 19.23
348.15 K | 901.4 | 16.45
353.15 K | 898 | 14.16
358.15 K | 894.6 | 12.28
363.15 K | 891.2 | 10.71

CCCCCCCCCC(=O)[O-].CCCCCCCCCCCCCC[P+](CCCCCC)(CCCCCC)CCCCCC [trihexyltetradecylphosphonium decanoate] + O
[1], x2 = 0.872
Details | mass density [kg/m3] | viscosity [mPa·s]
298.15 K | 901.2 | 90.95
303.15 K | 897.8 | 70.57
308.15 K | 894.5 | 55.66
313.15 K | 891.1 | 44.65
318.15 K | 887.7 | 36.26
323.15 K | 884.3 | 29.77
328.15 K | 880.9 | 24.65
333.15 K | 877.5 | 20.59
338.15 K | 874 | 17.35
343.15 K | 870.6 | 14.72
348.15 K | 867.1 | 12.57
353.15 K | 863.7 | 10.8
358.15 K | 860.2 | 9.345
363.15 K | 856.8 | 8.114

CC(CC(C)(C)C)CP(=O)([O-])CC(C)CC(C)(C)C.CCCCCCCCCCCCCC[P+](CCCCCC)(CCCCCC)CCCCCC
[2]
Details | mass density [kg/m3] | viscosity [mPa·s]
278.15 K | 897.3 | 5574.5
283.15 K | 894.3 | 3805.5
288.15 K | 891.3 | 2675.3
293.15 K | 888.3 | 1918.2
298.15 K | 885.3 | 1401.7
303.15 K | 882.3 | 1041.5
308.15 K | 879.3 | 785.77
313.15 K | 876.3 | 601.35
318.15 K | 873.4 | 466.24
323.15 K | 870.4 | 365.83
328.15 K | 867.5 | 290.28
333.15 K | 864.6 | 232.76
338.15 K | 861.7 | 188.43
343.15 K | 858.9 | 153.95
348.15 K | 856 | 126.77
353.15 K | 853.2 | 105.22
358.15 K | 850.3 | 87.92
363.15 K | 847.5 | 73.91

CCCCCCCCCC(=O)[O-].CCCCCCCCCCCCCC[P+](CCCCCC)(CCCCCC)CCCCCC [trihexyltetradecylphosphonium decanoate]
[2]
Details | mass density [kg/m3] | viscosity [mPa·s]
278.15 K | 893.2 | 1915.7
283.15 K | 890 | 1292.9
288.15 K | 886.9 | 902.16
293.15 K | 883.7 | 644.41
298.15 K | 880.6 | 471.51
303.15 K | 877.5 | 352.09
308.15 K | 874.4 | 267.73
313.15 K | 871.3 | 207.27
318.15 K | 868.3 | 163
323.15 K | 865.3 | 130.01
328.15 K | 862.2 | 104.89
333.15 K | 859.2 | 85.75
338.15 K | 856.2 | 70.93
343.15 K | 853.2 | 59.27
348.15 K | 850.2 | 49.99
353.15 K | 847.3 | 42.54
358.15 K | 844.3 | 36.46
363.15 K | 841.3 | 31.47

CCCCCCCCCCCCCC[P+](CCCCCC)(CCCCCC)CCCCCC.[Cl-] [trihexyl(tetradecyl)phosphonium chloride] + O
[1], x2 = 0.818
Details | mass density [kg/m3] | viscosity [mPa·s]
298.15 K | 901.6 | 134.72
303.15 K | 898.3 | 103.12
308.15 K | 895 | 80.2
313.15 K | 891.7 | 63.3
318.15 K | 888.4 | 50.65
323.15 K | 885.1 | 41.05
328.15 K | 881.8 | 33.64
333.15 K | 878.5 | 27.88
338.15 K | 875.2 | 23.33
343.15 K | 871.9 | 19.71
348.15 K | 868.6 | 16.79
353.15 K | 865.3 | 14.4
358.15 K | 862 | 12.44
363.15 K | 858.6 | 10.81
